These results are taken from PubChem BioAssay (NCI).

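48-hour exposure; five concentrations; linearly interpolated endpoints. GI50 is the concentration that inhibits growth by half. Definition used: TGI = concentration required for complete inhibition of growth.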

Among the test systems are COLO 205 colon; HCC-2998 colon; KM12 colon; MCF7 breast; NCI-H522 lung; OVCAR-8 ovarian; RPMI-8226 leukemia; SK-OV-3 ovarian; T-47D breast; UO-31 renal.
What all share (experiment): NCI-60 cell line screen, 48 h

Turning to `CC1(C)N=C(N)N=C(N)N1c1ccc(Cl)c(Cl)c1`, the GI50 is 3.56 µM with COLO 205 colon; 0.508 µM in the assay with HCC-2998 colon; 0.648 µM in the assay on KM12 colon; 0.388 µM in the assay with MCF7 breast; 6.67 µM with NCI-H522 lung; 0.202 µM with OVCAR-8 ovarian. In addition, the GI50 was 0.83 µM in the assay with SK-OV-3 ovarian, > 45.8 µM in the assay on T-47D breast and 13.5 µM with UO-31 renal. For the same molecule, the TGI is > 100 µM in the assay with COLO 205 colon; > 40.7 µM in the assay with HCC-2998 colon; > 100 µM in the assay on KM12 colon; > 100 µM in the assay on MCF7 breast; > 100 µM in the assay with NCI-H522 lung; > 100 µM with OVCAR-8 ovarian. Besides, the TGI in the assay on RPMI-8226 leukemia, in the assay on SK-OV-3 ovarian, in the assay with T-47D breast and with UO-31 renal was > 100 µM in each case.
As to `CC(=O)NC1=C(Sc2ccc(Cl)cc2)C(=O)c2ccccc2C1=O`, the TGI in the assay with COLO 205 colon turned out to be 3.6 µM; in the assay with HCC-2998 colon, 27.8 µM; with KM12 colon, 16.6 µM; with MCF7 breast it was 5.01 µM; in the assay on NCI-H522 lung, 1.18 µM; in the assay with OVCAR-8 ovarian, 6.77 µM. In addition, the TGI turned out to be 3.65 µM with RPMI-8226 leukemia, 29.1 µM in the assay on SK-OV-3 ovarian, 4.95 µM in the assay with T-47D breast and 4.13 µM with UO-31 renal.
On to `CC(OC(=O)N(N(CCCl)S(C)(=O)=O)S(C)(=O)=O)c1ccc([N+](=O)[O-])cc1` (stereo not drawn), for which the GI50 in the assay on COLO 205 colon was 77.6 µM; in the assay on HCC-2998 colon it was 56 µM; in the assay with KM12 colon it was > 82 µM; with MCF7 breast, 58 µM; with NCI-H522 lung, 51.4 µM; with OVCAR-8 ovarian, > 100 µM. The GI50 in the assay on RPMI-8226 leukemia was > 40.4 µM; in the assay on SK-OV-3 ovarian, > 100 µM; in the assay with T-47D breast, > 69.2 µM; in the assay on UO-31 renal, > 100 µM. The TGI in the assay on COLO 205 colon, with HCC-2998 colon, with KM12 colon, in the assay with MCF7 breast, in the assay on NCI-H522 lung and with OVCAR-8 ovarian was > 100 µM throughout. Besides, the TGI with RPMI-8226 leukemia was > 61.4 µM; in the assay on SK-OV-3 ovarian, > 100 µM; in the assay on T-47D breast, > 100 µM; with UO-31 renal, > 100 µM.
Turning to `COc1ccc2nccc(/C=C/c3ccnc4ccc(OC)cc34)c2c1`, the GI50 with COLO 205 colon is > 100 µM; with HCC-2998 colon it was > 100 µM; in the assay on KM12 colon, > 73.1 µM; in the assay with MCF7 breast it was 2.39 µM; in the assay on NCI-H522 lung it was 26.9 µM; in the assay with OVCAR-8 ovarian, > 100 µM. Also, the GI50 in the assay with RPMI-8226 leukemia was 17.8 µM; in the assay with SK-OV-3 ovarian it was > 77 µM; with T-47D breast it was 43.8 µM; with UO-31 renal, > 100 µM. Moreover, the TGI in the assay with COLO 205 colon was > 100 µM; in the assay with HCC-2998 colon, > 100 µM; in the assay on KM12 colon it was > 100 µM; in the assay with MCF7 breast, > 38.5 µM; with NCI-H522 lung, 89.2 µM; with OVCAR-8 ovarian, > 100 µM. The TGI with RPMI-8226 leukemia is 39.9 µM; in the assay with SK-OV-3 ovarian it was > 100 µM; in the assay on T-47D breast it was > 87.3 µM; in the assay with UO-31 renal, > 100 µM.
Take `Oc1c(CNCCNCc2cc(Cl)cc(Cc3ccccc3)c2O)cc(Cl)cc1Cc1ccccc1`: the GI50 with COLO 205 colon is 0.309 µM; in the assay with HCC-2998 colon it was 0.451 µM; in the assay on KM12 colon, 0.34 µM; in the assay with MCF7 breast, 0.291 µM; in the assay on NCI-H522 lung, 0.546 µM; in the assay with OVCAR-8 ovarian, 0.474 µM. Also, the GI50 with RPMI-8226 leukemia is 0.695 µM; with SK-OV-3 ovarian, 0.462 µM; in the assay on T-47D breast, 0.391 µM; in the assay with UO-31 renal, 0.128 µM. Moreover, the TGI was 1.53 µM in the assay on COLO 205 colon; 10.1 µM in the assay on HCC-2998 colon; 15.2 µM in the assay on KM12 colon; 47.7 µM in the assay on MCF7 breast; 25.6 µM in the assay with NCI-H522 lung; > 100 µM with OVCAR-8 ovarian. The TGI with RPMI-8226 leukemia is 6.39 µM; with SK-OV-3 ovarian, > 100 µM; in the assay with T-47D breast it was 37.9 µM; with UO-31 renal, 1.34 µM.
Turning to `C[C@]12CC[C@@H]3c4ccc(O)cc4CC[C@H]3[C@@H]1CC[C@@H]2NS(=O)(=O)c1ccc2ccccc2c1`, the GI50 is 1.94 µM with COLO 205 colon; 4.24 µM in the assay on HCC-2998 colon; 1.92 µM in the assay on KM12 colon; 3.36 µM with MCF7 breast; 3.16 µM in the assay with OVCAR-8 ovarian; 2.93 µM with RPMI-8226 leukemia. Besides, the figures for the GI50 in the assay with SK-OV-3 ovarian, with T-47D breast and in the assay with UO-31 renal were 5.79 µM, 3.9 µM and 1.83 µM, respectively. Moreover, the TGI with COLO 205 colon was determined as 3.37 µM; in the assay on HCC-2998 colon it was 15.5 µM; with KM12 colon, 4.06 µM; in the assay on MCF7 breast, 9.48 µM; in the assay on OVCAR-8 ovarian, 11.8 µM; with RPMI-8226 leukemia, 9.94 µM. Also, the values for the TGI in the assay with SK-OV-3 ovarian, in the assay on T-47D breast and in the assay on UO-31 renal were 36.4 µM, 16.3 µM and 5.57 µM, respectively.
For `COC(=O)[C@@H](OC)[C@@H]1Cc2cc3cc(OC4CC(OC5CC(O)C(O)C(C)O5)C(O)C(C)O4)c(C)c(O)c3c(O)c2C(=O)[C@H]1OC1CC(OC2CC(OC3CC(C)(O)C(O)C(C)O3)C(O)C(C)O2)C(O)C(C)O1` (stereo partly drawn), the GI50 with HCC-2998 colon was 0.0365 µM; in the assay on KM12 colon, 0.0404 µM; in the assay with MCF7 breast, 0.0275 µM; in the assay with NCI-H522 lung, 0.0358 µM; in the assay with OVCAR-8 ovarian, 0.0393 µM; in the assay with RPMI-8226 leukemia it was 0.0329 µM. Further, the GI50 with SK-OV-3 ovarian is 0.0811 µM; in the assay on T-47D breast, 0.0421 µM; with UO-31 renal it was 0.0335 µM. Besides, the TGI with HCC-2998 colon was 0.252 µM; in the assay with KM12 colon it was 3.72 µM; in the assay on MCF7 breast it was > 16.5 µM; in the assay on NCI-H522 lung, 0.172 µM; with OVCAR-8 ovarian, > 16.5 µM; with RPMI-8226 leukemia, 0.112 µM. Further, the TGI was > 16.5 µM with SK-OV-3 ovarian, > 16.5 µM in the assay with T-47D breast and 0.12 µM in the assay on UO-31 renal.
Take `C[n+]1c(/C=C/c2ccc(/C=N/NC(=O)c3ccc(C(=O)N/N=C/c4ccc(/C=C/c5cn6ccccc6[n+]5C)cc4)cc3)cc2)cn2ccccc21`: the TGI in the assay with COLO 205 colon, with HCC-2998 colon, in the assay on KM12 colon, in the assay with MCF7 breast, with OVCAR-8 ovarian and in the assay on RPMI-8226 leukemia was > 100 µM each time. The TGI in the assay on SK-OV-3 ovarian, with T-47D breast and with UO-31 renal was > 100 µM each time.
As for `C#C/C=C/CC1OC(C(Br)CC)CC(Br)C2CC1O2` (stereo not drawn), the TGI in the assay with COLO 205 colon was > 100 µM; with HCC-2998 colon, > 100 µM; in the assay with KM12 colon, > 100 µM; with MCF7 breast, > 100 µM; in the assay on NCI-H522 lung it was 21.1 µM; with OVCAR-8 ovarian it was > 100 µM. The TGI in the assay on RPMI-8226 leukemia, in the assay on SK-OV-3 ovarian and in the assay on T-47D breast was > 100 µM each time.
